Entries after “also recorded” stand apart in the source; their conditions may differ. Values belong to the compound of their own block, whether it stands above or below them. Where a SMILES comes first, the peptide text is derived from it. [ ]: non-standard residue; d: D form. dNle = CCCC[C@@H](N)C(=O)O; Ahx = NCCCCCC(=O)O
Assays:
in vitro = details: male, rat, pH 7.38
MDCK cells [1] = assay: Inhibition of HGF-dependent scattering in MDCK cells; type: cell-based, canine; details: HGF 20 ng/ml, 48 h
Protocol: (§1) MDCK cells were grown to 100% confluency on the coverslips in six-well plates and washed twice with PBS. The confluent coverslips were then aseptically transferred to new six well plates containing 900 μl serum free DMEM. Norleual, Hinge peptide, and/or HGF (20 ng/ml) were added to appropriate wells. Control wells received PBS vehicle. Plates were incubated at 37° C. with 5% CO2 for 48 hours. Media was removed and cells were fixed with methanol. Cells were stained with Diff-Quik Wright-Giemsa (Dade-Behring, Newark, Del.) and digital images were taken. Coverslips were removed with forceps and more digital images were captured. Pixel quantification of images was achieved using Image J and statistics were performed using Prism 5 and InStat v.3.05.
as §1, with “h.” for “hours.”, “Cells were stained with Diff-Quik Wright-Giemsa (Dade-Behring, Newark, Del.) and digital images were taken. Coverslips were removed with forceps and more digital images were captured.” left out, “v.3.05 (GraphPad; San Diego, Calif.).” for “v.3.05.”

human HGF = target: T1, human HGF (Homo sapiens, UniProt P14210); assay: HGF dimerization (PAGE, silver staining); type: biochemical; details: analog 10^−10 M, heparin, 30 minute incubation
T1 construct: purchased R&D Systems (Minneapolis, Minn.)
Protocol: HGF dimerization was assessed using PAGE followed by silver staining (Kawas et al., 2011). Human HGF at a concentration of 0.08 ng/μl with or without 6-AH analogs was incubated with heparin at a final concentration of 5 μg/ml. Loading buffer was then added to each sample and the mixture separated by native PAGE using gradient Criterion XT precast gels (4-12% Bis-Tris; Biorad Laboratories, Hercules, Calif.). Next the gel was silver stained for the detection of the HGF monomers and dimers. Bands were quantitated from digital images using a UVP phosphoimager (Upland, Calif.).

MDCK cells [2] = assay: HGF-dependent MDCK cell proliferation (MTT); type: cell-based, canine; details: analog 10^−10M, HGF 10 ng/ml, 4 days
Protocol: 5000 MDCK cells were seeded into the wells of a 96 well plates in 10% FBS DMEM. To induce cellular quiescence, the cells were serum deprived for 24 h prior to initiating the treatments. Following serum starvation, 10 ng/ml HGF alone and with various concentrations of 6-AH analogs or PBS vehicle were added to the media. The cells were allowed to grow under these conditions for 4 days with a daily addition of 6-AH analogs. On the fourth day, 1 mg/ml of […] (MTT, Sigma-Aldrich) prepared in PBS was added to the cells and incubated for 4 h. Dimethyl sulfoxide diluted in a 0.01M glycine buffer was added to solubilize the cell membranes and the absorbance of reduced MTT in the buffer was quantitated at 590 nm using a plate reader (Biotek Synergy 2, Winooski, Vt.). HGF-dependent proliferation was determined by subtracting the basal proliferation (in the absence of HGF) from total proliferation rates in groups containing HGF.

hippocampal neurons [3] = assay: Dendritic spine counts (spinogenesis) in mRFP-β-actin transfected dissociated hippocampal neurons; type: cell-based, rat; details: HGF 10 ng/ml, Dihexa or Nle1-AngIV 10^−12 M
Protocol: Hippocampal neurons (2×10^5 cells per square cm) were cultured from P1 Sprague Dawley rats on plates coated with poly-L-lysine from Sigma (St. Louis, Mo.; molecular weight 300,000). […] Each experiment was repeated at least three times using independent culture preparations. […] Hippocampal neurons (2×10^5 cells per square centimeter) were cultured from P1-2 Sprague Dawley rats on plates coated with poly-L-lysine from Sigma (St. Louis, Mo.; molecular weight 300,000). Hippocampal neurons were maintained in Neurobasal A media from Invitrogen (Carlsbad, Calif.) supplemented with B27 from Invitrogen, 0.5 mM L-glutamine, and […] cytosine-D-arabinofuranoside from Sigma added at 2 days in vitro. Hippocampal neurons were then cultured a further 3-7 days, at which time they were either transfected or treated with various pharmacological reagents as described in the text or figure legends. Neurons were transfected with mRFP-β-actin on day in vitro 6 […] using LipofectAMINETM 2000 (Invitrogen) according to the manufacturer's protocol. […] On DIV7 the cells were treated with vehicle (H20) or peptides (as described in the text) added to media. […] Five 50 μm long segments of dendrite from at least 10 neurons per data point were analyzed for each data point reported. Each experiment was repeated at least three times using independent culture preparations. […] A target sequence for c-Met was designed using RNAi central design program (see the website located at […].edu/). The target sequence […] NO: 2) was inserted into pSUPER vector (Oligoengine, Seattle Wash.) which drives endogenous production of shRNA under the H1 promoter. The shRNA was transfected into cells using the lipofectamine method described above. Verification of receptor knockdown was done by creating a c-[…]-Myc tagged gene product using the Gateway cloning system (Invitrogen). The Met protein coding sequence was cloned from rat whole brain cDNA using primers obtained from Integrated DNA Technologies, Inc. The amplified product was gel purified and a band corresponding to 190 kDa band excised and cloned into a […] destination vector (Gateway). Hippocampal neurons (2×10^5 cells per square cm) were cultured from P1 Sprague Dawley rats on plates coated with poly-L-lysine from Sigma (St. Louis, Mo.; molecular weight […]).

c-Met receptor = assay: c-Met phosphorylation in acute adult hippocampal slices; type: cell-based, rat; details: 30 minutes
From the text: Adult Sprague-Dawley rats (250 g+) obtained from Harlan Laboratories (Ca, USA) were anesthetized with isofluorane (Vet One™, MWI, Meridian, Id., USA) and decapitated. The brain was rapidly removed and placed into ice-chilled artificial cerebrospinal fluid (aCSF) for approximately 30 s. Both hemispheres were separated by a mid-saggital cut and both hippocampi removed. Slices were sectioned cross- and length-wise (400 μm) to ensure penetrability of the drug, using a Mcllwain tissue chopper (Brinkmann, Gomshall, UK) and transferred to a gassed (95% O2/5% CO2) incubation chamber containing aCSF for 90 minutes at room temperature. Slices were transferred to fresh tubes, aCSF was removed by careful suctioning and replaced with aCSF containing vehicle (aCSF+aCSF), 100 ng/ml with carrier free adult recombinant Hepatocyte Growth Factor (HGF) (R and D Systems, MN, USA) in aCSF, 10^−10 M Hinge (Harding lab), […], 10^−10 M Dihexa (Harding lab) in aCSF, 10^−12 M Dihexa in aCSF or 50 ng/ml HGF+10^−12 M Dihexa in aCSF for 30 minutes at 37° C. with gentle rocking. aCSF was removed and the slices were lysed using RIPA buffer (Upstate/Milipore, Billerica, Mass.) and inhibitor Cocktails I and II (Sigma, St. Louis, Mo.), sonicated on ice and clarified by centrifugation for 30 minutes, 13,000 rpm at 4° C. The supernatant was removed from the pellet and stored at −80° C. or processed immediately for gel electrophoresis.
Protein concentration of the samples was quantified using the BCA method (Pierce, Rockford, Ill.) following the manufacturers protocol. Samples were added to SDS-PAGE buffer and boiled for 10 min. before loading onto a 4-12% Bis-Tris pre-cast gel (Invitrogen, Carlsbad, Calif.) for electrophoresis. Proteins were transferred onto PVDF membranes (Bio Rad, Hercules, Calif.) and blocked with AquaBlock™ (New England Biolabs, Ipswich, Mass.) for 1 hour at room temperature (RT). Primary antibody incubation was done in AquaBlock™ with rabbit anti-Met and […] phospho-Met (Tyr1234/1235) (1:1000, Cell Signaling Technology, Danvers, Mass.) overnight at 4° C. Alternating washes were done with PBS and PBST. Secondary antibody (IRDye) (Rockland, Gilbertsville, Pa.) incubations were done in AquaBlock™ for one hour at RT. Blots were imaged using LI-COR Odyssey Infrared Imaging System (LI-COR Biosciences, Lincoln, Nebr.).

hippocampal neurons [4] = assay: Immunocytochemistry: percent correlation of spines to synaptic markers; type: cell-based, rat; details: HGF 10 ng/ml, 5 days
Protocol: (§2) Transfected neurons were treated, fixed and stained. Briefly, cells were permeablized with 0.1% Triton X-100 detergent (Bio-Rad; Hercules, Calif.) for 10 minutes. An 8% bovine serum albumin (Intergen Company; Burlington, Mass.) in PBS was used to prevent non-specific binding for one hour at R.T.; Primary antibody incubations were at a 1:2500 dilution (see below) in 1% BSA in PBS at 4° C. overnight. Secondary antibody, 1:3000 Alexafluor 488 goat-anti-mouse (Invitrogen: Carlsbad, Calif.) was applied for two hours at room temperature. Coverslips were mounted with ProLong Gold anti-fade reagent (Invitrogen; Carlsbad, Calif.) and all washes were done with PBS. Imaging and analysis were performed as described above. For presynaptic excitatory transmission the VGLUT1 (Synaptic Systems, Goettingen, Germany) marker (Balschun, Moechars et al.) was employed and for general presynaptic transmission synapsin1 (Synaptic Systems, Goettingen, Germany) (Ferreira and Rapoport 2002) was applied. A postsynaptic function was established by PSD-95 (Milipore, Billerica, Mass.) (El-Husseini, Schnell et al. 2000). In each instance the total number of spines was counted for the treatment groups, control, Nle1-AngIV and Dihexa, to ensure an active phenotype. The total number of actin enriched spines adjacent to VGLUT1 or Synapsin were counted and converted to a percentage as the percent correlation of treatment-induced spines to presynaptic markers is a strong indicator of ability to transmit excitatory signals.
as §2, with “fixed and stained as previously described in Chapter two. Briefly, cells” for “fixed and stained. Briefly, cells”, “enriched spines (red) adjacent to” for “enriched spines adjacent to”
Transfected neurons were treated and fixed as described above. Following fixation, cells were rinsed in PBS and permeabilized with 0.1% Triton® X-100 detergent (Bin-Rad; Hercules, Calif.), followed by two rinses in PBS and blocked with 8% bovine serum albumin (Intergen Company; Burlington, Mass.) in PBS for 1 h. […]

T1 sequence (P14210 32-728): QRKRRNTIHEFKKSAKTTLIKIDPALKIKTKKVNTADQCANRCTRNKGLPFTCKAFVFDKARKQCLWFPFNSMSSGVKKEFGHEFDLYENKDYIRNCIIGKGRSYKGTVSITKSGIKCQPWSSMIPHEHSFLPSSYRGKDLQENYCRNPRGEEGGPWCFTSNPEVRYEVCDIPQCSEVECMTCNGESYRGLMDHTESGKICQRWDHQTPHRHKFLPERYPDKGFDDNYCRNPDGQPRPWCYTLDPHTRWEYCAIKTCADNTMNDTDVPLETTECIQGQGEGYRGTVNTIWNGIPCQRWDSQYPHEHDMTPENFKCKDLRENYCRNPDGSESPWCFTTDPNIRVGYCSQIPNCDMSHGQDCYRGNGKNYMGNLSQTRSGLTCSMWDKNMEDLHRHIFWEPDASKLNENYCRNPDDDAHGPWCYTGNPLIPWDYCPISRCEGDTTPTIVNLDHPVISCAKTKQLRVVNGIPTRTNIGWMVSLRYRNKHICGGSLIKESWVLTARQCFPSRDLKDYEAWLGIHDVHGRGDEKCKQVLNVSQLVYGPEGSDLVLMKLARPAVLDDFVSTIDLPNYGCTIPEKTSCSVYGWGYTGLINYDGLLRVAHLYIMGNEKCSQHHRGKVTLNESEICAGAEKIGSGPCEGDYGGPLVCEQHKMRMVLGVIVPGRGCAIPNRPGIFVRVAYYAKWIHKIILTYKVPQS

Compound: CCCC[C@@H](N)C(=O)N[C@@H](CCSC)C(=O)N[C@H](C(=O)NCCCCCC(N)=O)[C@@H](C)CC [D-Nle-Met-Ile-NH—(CH2)5—CONH2] (H-[dNle]MI[Ahx]-NH2)
inhibition of HGF-dependent MDCK cell scattering (MDCK cells [1]): The HGF and HGF+Met groups were not different
inhibition of HGF dimerization (human HGF): unable to block dimerization at the concentration tested

Compound: CCCC[C@@H](N)C(=O)N[C@@H](Cc1c[nH]c2ccccc12)C(=O)N[C@H](C(=O)NCCCCCC(N)=O)[C@@H](C)CC [D-Nle-Trp-Ile-NH—(CH2)5—CONH2] (H-[dNle]WI[Ahx]-NH2)
inhibition of HGF dimerization (human HGF): intermediate inhibition of dimerization
inhibition of HGF dimerization (human HGF; listed as Trp): statistically different than the HGF treated group
inhibition of HGF-dependent MDCK cell proliferation (MDCK cells [2]): showed inhibitory activity, albeit less than that observed with the most potent analogs

Compound: HGF: carrier free adult recombinant Hepatocyte Growth Factor (R and D Systems)
mean spine numbers per 50 μm dendrite length (hippocampal neurons [3]; neurons transfected with mRFP-β-actin alone, 48 hours): 20.6 spines per 50 μm dendrite leng
mean spine numbers per 50 μm dendrite length (hippocampal neurons [3]; neurons transfected with mRFP-β-actin and shMet (c-Met knock-down)): 12.4 spines per 50 μm dendrite leng
c-Met phosphorylation vs vehicle (aCSF) (c-Met receptor; saturating doses: HGF 100 ng/ml, Dihexa 10^−10 M): increased c-Met phosphorylation; also recorded: effectively augment c-Met phosphorylation
c-Met phosphorylation vs vehicle (aCSF) (c-Met receptor; sub-threshold doses: HGF 50 ng/ml, Dihexa 10^−12 M): not statistically different from control treated slices; also recorded: did not significantly increase c-Met receptor phosphorylation
correlation between Synapsin and postsynaptic actin-enriched spines (hippocampal neurons [4]): 98%

The remaining lines, values ahead:

microsomal CLint at 5 µM (in vitro; pooled liver microsomes): 137 µL/min/mg
Compound: CCOc1ccc2ccc(=O)oc2c1 [7-ethoxycoumarin, reference compound]

microsomal CLint at 5 µM (in vitro; microsomes): 60.2 µL/min/mg
Compound: CN1C(C(=O)Nc2ccccn2)=C(O)c2ccccc2S1(=O)=O [piroxicam, reference compound]

From patent US9051351B2, “Hepatocyte growth factor mimics as therapeutic agents” (Washington State University, priority 2011, dated 2015)
